Assay results: the NIST ThermoML archive (doi:10.1016/j.jct.2012.04.016)
± gives the expanded uncertainty stated by the source.

Conditions: Liquid; Ebulliometric method (Recirculating still)

| Normal boiling temperature [°C] | SMILES |
| --- | --- |
| 169.30 ± 0.22 | Cc1ccc(C)c(C)c1 [1,2,4-trimethylbenzene] |
| 240.0 ± 0.21 | O=CN1CCOCC1 [N-formylmorpholine] |
| 136.20 ± 0.21 | CCc1ccccc1 [ethylbenzene] |
| 152.40 ± 0.22 | CC(C)c1ccccc1 [isopropylbenzene] |

| SMILES | Normal boiling temperature [°C] |
| --- | --- |
| CCCCc1ccccc1 [butylbenzene] | 183.2 ± 0.22 |
